The target of assay [1] is T1, PI3Kα (Homo sapiens, UniProt P42336).
T1 construct: Full length p110 subunits of PI3K α, β and δ, N-terminally labeled with polyHis tag; polyHis (N); made in house; host or cells: Sf9 insect cells (baculovirus)
Nature of the assay: In vitro PI3 kinase enzyme assay (PI3K ATPLoss). The class given is biochemical. To be noted: recombinant p110α/p85, residual ATP by bioluminescence. The procedure:
Full length p110 subunits of PI3K α, β and δ, N-terminally labeled with polyHis tag, can be co-expressed with p85 with Baculo virus expression vectors in sf9 insect cells. P110/p85 heterodimers can be purified by sequential Ni-NTA, Q-HP, Superdex-100 chromatography. Purified α, β and δ isozymes can be stored at −20° C. in 20 mM Tris, pH 8, 0.2M NaCl, 50% glycerol, 5 mM DTT, 2 mM Na cholate. Truncated PI3Kγ, residues 114-1102, N-terminally labeled with polyHis tag, can be expressed with Baculo virus in Hi5 insect cells. The γ isozyme can be purified by sequential Ni-NTA, Superdex-200, Q-HP chromatography. The γ isozyme can be stored frozen at −80° C. in NaH2PO4, pH 8, 0.2M NaCl, 1% ethylene glycol, 2 mM β-mercaptoethanol.
PI3K enzyme assays (alpha, beta, delta and gamma) can be performed in 25 μL with the above final concentrations of components in white polyproplyene plates. Phosphatidyl inositol phosphoacceptor, PtdIns(4,5)P2 (e.g. P4508) can be obtained from Echelon Biosciences, Salt Lake City, Utah. The ATPase activity of the alpha and gamma isozymes may not be greatly stimulated by PtdIns(4,5)P2 under these conditions, it can be omitted from the assay of these isozymes. Test compounds can be dissolved in DMSO and diluted with three-fold serial dilutions. The compound in DMSO (1 μL) may be added per test well, and the inhibition relative to reactions containing no compound, with and without enzyme can be determined. After assay incubation at RT, the reaction can be stopped and residual ATP can be determined by addition of an equal volume of a commercial ATP bioluminescence kit (Perkin Elmer EasyLite, Perkin Elmer, Waltham, Mass.) according to the manufacturer's instructions, and detected using an Analyst GT luminometer.

The subject of assay [2] is phosphorylation of Akt at Serine 473 in U87 MG cells. As to the kind of experiment: pAkt AlphaScreen (U87 Cell). The class given is cell-based. To be noted: Homo sapiens, U-87 MG, 2 h, 2 h compound, pAkt Ser473 AlphaScreen. The procedure:
The pAkt AlphaScreen® assay (PerkinElmer, Waltham, Mass.) determines whether there is phosphorylation of Akt at Serine 473 by recruitment of a phosphospecific antibody. This assay was performed using U87 MG cells. The U87 growth media consists of MEM (Gibco, Carlsbad, Calif.) supplemented with 10% FBS (Gibco), 1× Non-Essential Amino Acids (Gibco) and 1× Penicillin/Streptomycin/Glutamine (Gibco). The cells were maintained weekly using 0.05% Trypsin (Gibco) and replated in 150 mm TC-Treated Culture Dishes (Corning, Corning, N.Y.).
The first day of the assay, the adherent cells were trypsinized, media was added to the loose cells and cells were mixed to a homogenous mixture. 0.5 ml of the homogenous mixture was counted on the Beckman Coulter® Vi-CELL™ XR (Fullerton, Calif.). 50 frames of cells were counted and the number of viable cells was determined. The cells were then diluted to 0.25 million cells per ml, and centrifuged at 200 rcf for 5 minutes. The media was removed and the cells were reconstituted in fresh media for plating. The cells were plated at 20 μl per well on the PerkinElmer® Flexprop PLUS in Low Volume 384 Well White Tissue Culture Plates (Corning) with a final cell density of 5K cells per well. The plates were incubated overnight at 37° Celsius, 5% CO2.
On the second day, the compound plates were prepared, the cells were treated with compound and the pAkt reaction mix was added to the cell lysate. 384 well compound plates were prepared containing 1 μl of compound per well starting at 5 mM and diluted 1:2 across the row, resulting in a 22 well serial dilution. 39 μl of growth media was added to the compound plate in rows 1-22 using the PerkinElmer® FlexDrop PLUS resulting in a DMSO concentration of 2.5%. The cell plates and diluted compound plates were put onto the VELOCITY11™ VPREP™ 384 ST where the compound plate was mixed and 5 μl of serially diluted compound or controls was added to the cell plate. The final concentration of the compounds was 25 μM serially diluted to 11.9 pM in 0.5% DMSO. The cell plates were then incubated with compound for two hours at 37° Celsius, 5% CO2. After two hours, the media in the cell plates was aspirated using the BioTek® ELx405HT plate washer (Winooski, Vt.) removing the majority of media and compound without disturbing the adherent U87 cells. The following assay reagents are components of the SureFire® Akt (Ser 473) Phosphorylation 50K Point Kit (TGR BioSciences, Adelaide, Australia) and an IgG Detection Kit (PerkinElmer, Waltham, Mass.). 5 μl of 1× Lysis Buffer was added to each well using the PerkinElmer® FlexDrop PLUS. The plates were then incubated at room temperature on a shaker for ten minutes. The AlphaScreen® reaction was prepared under low light conditions (subdued or green light) including p-Akt (Ser 473) Reaction Buffer, Dilution Buffer, Activation Buffer, Acceptor Beads and Donor Beads at a ratio of 40:20:10:1:1 respectively. The AlphaScreen® reaction was added to the cell lysate at 6 μl per well using the PerkinElmer® FlexDrop PLUS. The plates were placed in a humid environment to reduce edge effects and incubated overnight at room temperature with restricted air flow in the dark.
On the final day of the experiment, the plates were read on the PerkinElmer® EnVision™ 2103 Multilable Reader using the standard AlphaScreen® readout. The POC is calculated and the data is analyzed to report the IC50 IP for pAkt at Serine 473.
Background: Alpha assays give light when donor and acceptor beads are brought close together.

The IC50 is the concentration that inhibits the measured activity by half.

SMILES strings stand for the structures.

T1 sequence (P42336 whole entry, species assumed): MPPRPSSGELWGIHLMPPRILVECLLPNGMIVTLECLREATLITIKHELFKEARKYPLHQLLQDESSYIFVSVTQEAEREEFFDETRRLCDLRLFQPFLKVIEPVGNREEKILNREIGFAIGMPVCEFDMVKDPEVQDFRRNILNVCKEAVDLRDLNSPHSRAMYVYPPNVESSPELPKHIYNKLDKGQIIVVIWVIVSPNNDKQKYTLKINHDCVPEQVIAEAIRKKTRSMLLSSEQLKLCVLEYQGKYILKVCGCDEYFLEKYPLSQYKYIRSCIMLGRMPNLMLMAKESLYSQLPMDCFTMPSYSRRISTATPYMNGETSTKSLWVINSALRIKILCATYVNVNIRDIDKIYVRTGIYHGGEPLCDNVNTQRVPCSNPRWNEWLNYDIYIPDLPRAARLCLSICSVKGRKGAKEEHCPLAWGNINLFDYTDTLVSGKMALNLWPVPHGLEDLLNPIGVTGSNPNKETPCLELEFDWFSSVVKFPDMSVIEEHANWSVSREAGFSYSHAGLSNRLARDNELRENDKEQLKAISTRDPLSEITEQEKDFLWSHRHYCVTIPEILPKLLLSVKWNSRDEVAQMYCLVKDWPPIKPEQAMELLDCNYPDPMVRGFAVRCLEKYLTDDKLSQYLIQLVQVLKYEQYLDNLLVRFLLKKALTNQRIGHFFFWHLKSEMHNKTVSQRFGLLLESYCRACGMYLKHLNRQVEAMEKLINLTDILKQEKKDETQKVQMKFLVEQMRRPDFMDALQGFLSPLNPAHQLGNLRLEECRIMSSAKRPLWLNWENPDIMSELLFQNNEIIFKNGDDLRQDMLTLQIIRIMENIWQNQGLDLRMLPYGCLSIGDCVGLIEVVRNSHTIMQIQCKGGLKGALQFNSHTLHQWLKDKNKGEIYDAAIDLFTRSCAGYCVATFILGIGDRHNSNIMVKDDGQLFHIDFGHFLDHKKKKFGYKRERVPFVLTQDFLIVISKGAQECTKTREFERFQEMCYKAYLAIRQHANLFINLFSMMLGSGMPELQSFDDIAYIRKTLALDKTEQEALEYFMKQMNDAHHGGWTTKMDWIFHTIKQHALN
T1 sequence (P27986 whole entry partner, species assumed): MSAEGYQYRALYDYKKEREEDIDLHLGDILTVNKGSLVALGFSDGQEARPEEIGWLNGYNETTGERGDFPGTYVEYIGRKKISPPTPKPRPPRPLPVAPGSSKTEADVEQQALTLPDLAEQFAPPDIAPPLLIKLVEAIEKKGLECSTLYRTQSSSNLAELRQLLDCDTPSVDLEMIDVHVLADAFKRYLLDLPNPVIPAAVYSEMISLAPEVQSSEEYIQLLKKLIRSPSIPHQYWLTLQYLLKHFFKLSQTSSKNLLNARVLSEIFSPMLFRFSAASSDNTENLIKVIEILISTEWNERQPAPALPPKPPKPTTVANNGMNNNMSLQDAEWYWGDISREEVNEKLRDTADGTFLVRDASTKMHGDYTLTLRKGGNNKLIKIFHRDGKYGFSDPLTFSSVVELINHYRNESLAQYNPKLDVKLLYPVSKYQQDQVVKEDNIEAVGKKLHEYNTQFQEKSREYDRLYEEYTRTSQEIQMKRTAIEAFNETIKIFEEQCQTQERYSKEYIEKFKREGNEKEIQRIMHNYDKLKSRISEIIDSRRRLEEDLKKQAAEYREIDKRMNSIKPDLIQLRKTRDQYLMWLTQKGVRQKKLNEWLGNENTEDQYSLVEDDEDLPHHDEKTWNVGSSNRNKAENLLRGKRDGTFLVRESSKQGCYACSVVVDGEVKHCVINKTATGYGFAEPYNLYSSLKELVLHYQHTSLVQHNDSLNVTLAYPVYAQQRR

As for `CC(=O)Nc1cn2nc(-c3ccnc(F)c3)ccc2n1` [Example 3, N-(6-(2-Fluoropyridin-4-yl)imidazo[1,2-b]pyridazin-2-yl)acetamide], the IC50 in assay [1] is 782 nM.

Turning to `CC(=O)Nc1cn2nc(-c3cccc(N)c3)ccc2n1` [Example 5, N-(6-(3-Aminophenyl)imidazo[1,2-b]pyridazin-2-yl)acetamide], the IC50 in assay [1] was 982 nM. `CC(=O)Nc1cn2nc(-c3cccc(NS(=O)(=O)c4cccc5cnccc45)c3)ccc2n1` [Example 6, N-(6-(3-(Isoquinoline-5-sulfonamido)phenyl)imidazo[1,2-b]pyridazin-2-yl)acetamide]: the 50% inhibitory concentration (IC50) in assay [1] is 96 nM. With `CC(=O)Nc1cn2cc(-c3cncc(N)c3)ccc2n1` [Example 14, N-(6-(5-Aminopyridin-3-yl)H-imidazo[1,2-a]pyridin-2-yl)acetamide], the half-inhibitory concentration (IC50) in assay [1] turned out to be 214 nM. Still for that read-out and setting: the value for `CC(=O)Nc1cn2cc(-c3cncc(NCCC(C)(C)C)c3)ccc2n1` [Example 18, N-(6-(5-(3,3-Dimethylbutylamino)pyridin-3-yl)H-imidazo[1,2-a]pyridin-2-yl)acetamide] was 211 nM. With `COc1cc(-c2ccc3nc(NC(C)=O)cn3n2)cnc1OC` [Example 20, N-(6-(5,6-Dimethoxypyridin-3-yl)imidazo[1,2-b]pyridazin-2-yl)acetamide], the results for the half-maximal inhibitory concentration (IC50) in assay [1] and in assay [2] were 14 nM and 115 nM, respectively. Regarding `CC(=O)Nc1nc2ccc(-c3cnc(Cl)c(NS(C)(=O)=O)c3)nn2c1I` [Example 21, N-(6-(6-Chloro-5-(methylsulfonamido)pyridin-3-yl)-3-iodoimidazo[1,2-b]pyridazin-2-yl)acetamide], the 50% inhibitory concentration (IC50) came out at 33 nM in assay [1] and 2180 nM in assay [2]. Take `CC(=O)Nc1nc2ccc(-c3cnc(Cl)c(NS(C)(=O)=O)c3)nn2c1-c1cccc(F)c1` [Example 22, N-(6-(6-Chloro-5-(methylsulfonamido)pyridin-3-yl)-3-(3-fluorophenyl)imidazo[1,2-b]pyridazin-2-yl)acetamide]: the IC50 in assay [1] is 15 nM; in assay [2], 3200 nM. For `CS(=O)(=O)Nc1cc(-c2ccc3nc(N)c(-c4cccc(F)c4)n3n2)cnc1Cl` [Example 23, N-(5-(2-Amino-3-(3-fluorophenyl)imidazo[1,2-b]pyridazin-6-yl)-2-chloropyridin-3-yl)methanesulfonamide], in that order: 102 nM and 55 nM. The matching figures for `CC(=O)Nc1nc2ccc(-c3cnc(Cl)c(NS(C)(=O)=O)c3)nn2c1-c1ccc(F)c(C(=O)N2CCOCC2)c1` [Example 24, N-(6-(6-chloro-5-(methylsulfonamido)pyridin-3-yl)-3-(4-fluoro-3-(morpholine-4-carbonyl)phenyl)imidazo[1,2-b]pyridazin-2-yl)acetamide]: 93 nM and at least 25000 nM.

Consider `CS(=O)(=O)Nc1cc(-c2ccc3nc(N)c(-c4ccc(F)c(C(=O)O)c4)n3n2)cnc1Cl` [Example 25, 5-(2-Amino-6-(6-chloro-5-(methylsulfonamido)pyridin-3-yl)imidazo[1,2-b]pyridazin-3-yl)-2-fluorobenzoic acid], for which the 50% inhibitory concentration (IC50) in assay [1] was 1170 nM; in assay [2] it was at least 25000 nM. Consider `Nc1cn2cc(-c3cnc(Cl)c(NS(=O)(=O)c4ccc(F)cc4)c3)ccc2n1` [Example 29, N-(5-(2-Aminoimidazo[1,2-a]pyridin-6-yl)-2-chloropyridin-3-yl)-4-fluorobenzenesulfonamide], for which the IC50 in assay [1] was determined as 64 nM.

In assay [2], `CC(=O)Nc1nc2ccc(-c3cnc(Cl)c(NS(=O)(=O)c4cccc(OC(F)F)c4)c3)nn2c1-c1ccncc1` [Example 44, N-(6-(6-Chloro-5-(3-(difluoromethoxy)phenylsulfonamido)pyridin-3-yl)-3-(pyridin-4-yl)imidazo[1,2-b]pyridazin-2-yl)acetamide] yielded a half-inhibitory concentration (IC50) of 7480 nM. Turning to `Nc1nc2ccc(-c3cnc(Cl)c(NS(=O)(=O)c4cccc(OC(F)F)c4)c3)nn2c1-c1ccncc1` [Example 45, N-(5-(2-Amino-3-(pyridin-4-yl)imidazo[1,2-b]pyridazin-6-yl)-2-chloropyridin-3-yl)-3-(difluoromethoxy)benzenesulfonamide], half-maximal inhibition in assay [2] (IC50) was put at 27 nM. In turn, `CC(=O)Nc1nc2ccc(-c3cnc(Cl)c(NS(=O)(=O)c4cccc(OC(F)F)c4)c3)nn2c1-c1ccnc(C)c1` [Example 46, N-(6-(6-Chloro-5-(3-(difluoromethoxy)phenylsulfonamido)pyridin-3-yl)-3-(2-methylpyridin-4-yl)imidazo[1,2-b]pyridazin-2-yl)acetamide] yielded a half-inhibitory concentration (IC50) in assay [2] of 5790 nM.

In assay [2], `Cc1cc(-c2c(N)nc3ccc(-c4cnc(Cl)c(NS(=O)(=O)c5cccc(OC(F)F)c5)c4)nn23)ccn1` [Example 47, N-(5-(2-Amino-3-(2-methylpyridin-4-yl)imidazo[1,2-b]pyridazin-6-yl)-2-chloropyridin-3-yl)-3-(difluoromethoxy)benzenesulfonamide] showed an IC50 of 14 nM.

Molecule `CC(=O)Nc1nc2ccc(-c3cnc(Cl)c(NS(=O)(=O)c4ccc(F)cc4)c3)nn2c1-c1ccncc1` [Example 48, N-(6-(6-Chloro-5-(4-fluorophenylsulfonamido)pyridin-3-yl)-3-(pyridin-4-yl)imidazo[1,2-b]pyridazin-2-yl)acetamide] showed an IC50 in assay [2] of 18 nM. On the same count and under the same terms, for `CC(=O)Nc1nc2ccc(-c3cnc(Cl)c(NS(=O)(=O)c4cccc(OC(F)F)c4)c3)nn2c1-c1cccnc1` [Example 49, N-(6-(6-Chloro-5-(3-(difluoromethoxy)phenylsulfonamido)pyridin-3-yl)-3-(pyridin-3-yl)imidazo[1,2-b]pyridazin-2-yl)acetamide] the value was 3900 nM. In assay [2], `Nc1nc2ccc(-c3cnc(Cl)c(NS(=O)(=O)c4cccc(OC(F)F)c4)c3)nn2c1-c1cccnc1` [Example 50, N-(5-(2-Amino-3-(pyridin-3-yl)imidazo[1,2-b]pyridazin-6-yl)-2-chloropyridin-3-yl)-3-(difluoromethoxy)benzenesulfonamide] gave a half-maximal inhibitory concentration (IC50) of 118 nM. As for `Nc1nc2ccc(-c3cnc(Cl)c(NS(=O)(=O)c4cccc(OC(F)F)c4)c3)nn2c1C1=CCNCC1` [Example 51, N-(5-(2-Amino-3-(1,2,3,6-tetrahydropyridin-4-yl)imidazo[1,2-b]pyridazin-6-yl)-2-chloropyridin-3-yl)-3-(difluoromethoxy)benzenesulfonamide], the IC50 in assay [2] came to 439 nM.

Take `CC(=O)Nc1cn2cc(-c3ccnc(Cl)n3)ccc2n1` [Example 53, N-(6-(2-Chloropyrimidin-4-yl)H-imidazo[1,2-a]pyridin-2-yl)acetamide]: the IC50 in assay [1] was determined as 1860 nM.

(Values after US7820665B2, “Imidazopyridazine inhibitors of PI3 kinase for cancer treatment” (Amgen Inc., priority 2007, dated 2010).)
